# Test results taken from patent publication US20260115265A1, “METHODS AND COMPOSITIONS FOR PREVENTING OR TREATING FOOD ALLERGIES” (Revolo Biotherapeutics Limited, priority 2022, published 2026).
# Where two headings read alike, the source gives them in different places. Ends that are not written are not given here.
# Assay: Serum/plasma pharmacokinetics (half-life)
# Type: in vivo
sequence,measurement,setting,value
DGSVVVNKVSELPAGHGLNVNTLSYGDLAAD ['1104],half-life,"in vivo, across species, read-out: half-life",10 to 15 min
same,half-life,"serum, read-out: serum PK",~15 min
